Experiment: Solubility of added 5% CHG in commercial detergent compositions
Assay type: physicochemical

Solubility of CHG in detergent composition C2 (5% CHG added to C2): insoluble
Solubility of CHG in detergent composition C3 (5% CHG added to C3): insoluble
Solubility of CHG in detergent composition C6 (5% CHG added to C6): insoluble
Structure (SMILES): N=C(NCCCCCCNC(=N)NC(=N)Nc1ccc(Cl)cc1)NC(=N)Nc1ccc(Cl)cc1.O=C(O)[C@H](O)[C@@H](O)[C@H](O)[C@H](O)CO.O=C(O)[C@H](O)[C@@H](O)[C@H](O)[C@H](O)CO [CHG, chlorhexidine gluconate]

From patent US20210395653A1, “COMPOSITIONS FOR TREATMENT AND METHODS FOR MAKING AND USING THE SAME” (ASP Global Manufacturing GmbH, priority 2018, published 2021)
